Results from PubChem BioAssay (NCI).
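Protocol summary: plate cells (96-well), add compound at 5 concentrations, incubate 48 h, interpolate endpoints linearly. TGI: total growth inhibition.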

What was measured:
Test in all cases: NCI anticancer screen, dose series, 48 h
U251 CNS = system: U251 CNS
HOP-62 NSCLC = system: HOP-62 NSCLC
MDA-N = system: MDA-N
CCRF-CEM leukemia = system: CCRF-CEM leukemia
EKVX NSCLC = system: EKVX NSCLC
OVCAR-5 ovarian = system: OVCAR-5 ovarian
NCI-H460 lung = system: NCI-H460 lung
MCF7 breast = system: MCF7 breast
HCC-2998 colon = system: HCC-2998 colon
786-0 renal = system: 786-0 renal
NCI-H23 lung = system: NCI-H23 lung
HL-60(TB) leukemia = system: HL-60(TB) leukemia
NCI/ADR-RES ovarian = system: NCI/ADR-RES ovarian
MOLT-4 leukemia = system: MOLT-4 leukemia
SR leukemia = system: SR leukemia
SK-MEL-28 melanoma = system: SK-MEL-28 melanoma
TK-10 renal = system: TK-10 renal
M14 melanoma = system: M14 melanoma
HCT-15 colon = system: HCT-15 colon
SK-MEL-5 melanoma = system: SK-MEL-5 melanoma
A498 renal = system: A498 renal
ACHN renal = system: ACHN renal
MDA-MB-231 breast = system: MDA-MB-231 breast
UACC-62 melanoma = system: UACC-62 melanoma
HCT-116 colon = system: HCT-116 colon
T-47D breast = system: T-47D breast
OVCAR-8 ovarian = system: OVCAR-8 ovarian
SF-268 CNS = system: SF-268 CNS
DU-145 prostate = system: DU-145 prostate
NCI-H226 lung = system: NCI-H226 lung
SK-MEL-2 melanoma = system: SK-MEL-2 melanoma
SK-OV-3 ovarian = system: SK-OV-3 ovarian
RPMI-8226 leukemia = system: RPMI-8226 leukemia
SNB-19 CNS = system: SNB-19 CNS
SNB-75 CNS = system: SNB-75 CNS
MDA-MB-435 = system: MDA-MB-435
SN12C renal = system: SN12C renal
LOX IMVI melanoma = system: LOX IMVI melanoma
COLO 205 colon = system: COLO 205 colon
HOP-92 NSCLC = system: HOP-92 NSCLC
K-562 leukemia = system: K-562 leukemia
SF-539 CNS = system: SF-539 CNS
A549 NSCLC = system: A549 NSCLC
SW-620 colon = system: SW-620 colon
PC-3 prostate = system: PC-3 prostate
HS 578T breast = system: HS 578T breast
OVCAR-3 ovarian = system: OVCAR-3 ovarian
MALME-3M melanoma = system: MALME-3M melanoma
RXF 393 renal = system: RXF 393 renal
HT29 colon = system: HT29 colon
OVCAR-4 ovarian = system: OVCAR-4 ovarian
CAKI-1 renal = system: CAKI-1 renal
SF-295 CNS = system: SF-295 CNS
NCI-H522 lung = system: NCI-H522 lung
UACC-257 melanoma = system: UACC-257 melanoma
BT-549 breast = system: BT-549 breast
IGROV1 ovarian = system: IGROV1 ovarian
KM12 colon = system: KM12 colon
UO-31 renal = system: UO-31 renal

Cn1c(=O)c(Br)c(C=O)n(CCO[N+](=O)[O-])c1=O
TGI (U251 CNS): 9.77 µM
TGI (HOP-62 NSCLC): 37.5 µM
TGI (MDA-N): 17.3 µM
TGI (CCRF-CEM leukemia): 5.25 µM
TGI (EKVX NSCLC): 7.07 µM
TGI (OVCAR-5 ovarian): 13.8 µM
TGI (NCI-H460 lung): 31.5 µM
TGI (MCF7 breast): 6.17 µM
TGI (HCC-2998 colon): 32 µM
TGI (786-0 renal): 17.3 µM
TGI (NCI-H23 lung): 19.4 µM
TGI (HL-60(TB) leukemia): 4.46 µM
TGI (NCI/ADR-RES ovarian): 4.31 µM
TGI (MOLT-4 leukemia): 5.8 µM
TGI (SR leukemia): 5.48 µM
TGI (SK-MEL-28 melanoma): 4.73 µM
TGI (TK-10 renal): 15.7 µM
TGI (M14 melanoma): 15 µM
TGI (HCT-15 colon): 20 µM
TGI (SK-MEL-5 melanoma): 23.9 µM
TGI (A498 renal): 33.4 µM
TGI (ACHN renal): 13.2 µM
TGI (MDA-MB-231 breast): 8.4 µM
TGI (UACC-62 melanoma): 4.9 µM
TGI (HCT-116 colon): 16.1 µM
TGI (T-47D breast): 14.6 µM
TGI (OVCAR-8 ovarian): 7.79 µM
TGI (SF-268 CNS): 31.3 µM
TGI (DU-145 prostate): > 100 µM
TGI (NCI-H226 lung): > 100 µM
TGI (SK-MEL-2 melanoma): 15.8 µM
TGI (SK-OV-3 ovarian): 38.7 µM
TGI (RPMI-8226 leukemia): 7.42 µM
TGI (SNB-19 CNS): 68.4 µM
TGI (SNB-75 CNS): 27 µM
TGI (MDA-MB-435): 21.6 µM
TGI (SN12C renal): 17.4 µM
TGI (LOX IMVI melanoma): 5.51 µM
TGI (COLO 205 colon): 26.9 µM
TGI (HOP-92 NSCLC): 6.85 µM
TGI (K-562 leukemia): 8.82 µM
TGI (SF-539 CNS): 32.8 µM
TGI (A549 NSCLC): 33 µM
TGI (SW-620 colon): 5.45 µM
TGI (PC-3 prostate): 23.5 µM
TGI (HS 578T breast): > 100 µM

C=C1c2ccccc2C(=O)c2c1c1c(C(=O)OC)c(O)ccc1n2Cc1ccccc1
TGI (OVCAR-3 ovarian): 0.392 µM
TGI (MALME-3M melanoma): 1.18 µM
TGI (U251 CNS): 0.763 µM
TGI (RXF 393 renal): 0.976 µM
TGI (HOP-62 NSCLC): 1.53 µM
TGI (MDA-N): 1.55 µM
TGI (CCRF-CEM leukemia): 0.74 µM
TGI (EKVX NSCLC): 2.34 µM
TGI (OVCAR-5 ovarian): 2.44 µM
TGI (NCI-H460 lung): 2.34 µM
TGI (HT29 colon): 0.823 µM
TGI (MCF7 breast): 0.763 µM
TGI (786-0 renal): 0.525 µM
TGI (NCI-H23 lung): 2.8 µM
TGI (OVCAR-4 ovarian): 1.77 µM
TGI (HL-60(TB) leukemia): 0.857 µM
TGI (NCI/ADR-RES ovarian): 0.723 µM
TGI (MOLT-4 leukemia): 0.971 µM
TGI (SK-MEL-28 melanoma): 1.07 µM
TGI (TK-10 renal): 1.55 µM
TGI (M14 melanoma): 1.03 µM
TGI (HCT-15 colon): 1.2 µM
TGI (SK-MEL-5 melanoma): 1.97 µM
TGI (A498 renal): 2.27 µM
TGI (CAKI-1 renal): 1.71 µM
TGI (ACHN renal): 1.74 µM
TGI (MDA-MB-231 breast): 1.54 µM
TGI (UACC-62 melanoma): 1.12 µM
TGI (HCT-116 colon): 1.43 µM
TGI (OVCAR-8 ovarian): 0.952 µM
TGI (SF-268 CNS): 0.518 µM
TGI (DU-145 prostate): 0.745 µM
TGI (SF-295 CNS): 1.99 µM
TGI (NCI-H522 lung): 0.795 µM
TGI (SK-MEL-2 melanoma): 2.39 µM
TGI (SK-OV-3 ovarian): 1.35 µM
TGI (UACC-257 melanoma): 5.98 µM
TGI (BT-549 breast): 1.69 µM
TGI (IGROV1 ovarian): 0.799 µM
TGI (RPMI-8226 leukemia): 0.53 µM
TGI (SNB-19 CNS): 1.52 µM
TGI (SNB-75 CNS): 0.899 µM
TGI (MDA-MB-435): 0.885 µM
TGI (SN12C renal): 0.939 µM
TGI (LOX IMVI melanoma): 0.628 µM
TGI (KM12 colon): 1.7 µM
TGI (COLO 205 colon): 3.72 µM
TGI (HOP-92 NSCLC): 0.613 µM
TGI (K-562 leukemia): 1.55 µM
TGI (SF-539 CNS): 0.657 µM
TGI (UO-31 renal): 1.74 µM
TGI (A549 NSCLC): 3.6 µM
TGI (SW-620 colon): 1.42 µM
TGI (PC-3 prostate): 1.56 µM
TGI (HS 578T breast): 1.73 µM

CCOP(=O)(OCC)/C(C#N)=C/c1ncc[nH]1
TGI (OVCAR-3 ovarian): > 100 µM
TGI (MALME-3M melanoma): > 100 µM
TGI (U251 CNS): > 100 µM
TGI (RXF 393 renal): > 100 µM
TGI (HOP-62 NSCLC): > 100 µM
TGI (MDA-N): > 100 µM
TGI (CCRF-CEM leukemia): > 100 µM
TGI (EKVX NSCLC): > 100 µM
TGI (OVCAR-5 ovarian): > 100 µM
TGI (NCI-H460 lung): > 100 µM
TGI (HT29 colon): > 100 µM
TGI (MCF7 breast): > 100 µM
TGI (HCC-2998 colon): > 100 µM
TGI (786-0 renal): > 100 µM
TGI (NCI-H23 lung): > 100 µM
TGI (OVCAR-4 ovarian): > 100 µM
TGI (HL-60(TB) leukemia): > 100 µM
TGI (NCI/ADR-RES ovarian): > 100 µM
TGI (MOLT-4 leukemia): > 100 µM
TGI (SR leukemia): > 100 µM
TGI (SK-MEL-28 melanoma): > 100 µM
TGI (M14 melanoma): > 100 µM
TGI (SK-MEL-5 melanoma): > 100 µM
TGI (A498 renal): > 100 µM
TGI (CAKI-1 renal): > 100 µM
TGI (ACHN renal): > 100 µM
TGI (MDA-MB-231 breast): > 100 µM
TGI (UACC-62 melanoma): > 100 µM
TGI (HCT-116 colon): > 100 µM
TGI (OVCAR-8 ovarian): > 100 µM
TGI (SF-268 CNS): > 100 µM
TGI (DU-145 prostate): > 100 µM
TGI (NCI-H226 lung): > 100 µM
TGI (SF-295 CNS): > 100 µM
TGI (NCI-H522 lung): > 100 µM
TGI (SK-MEL-2 melanoma): > 100 µM
TGI (SK-OV-3 ovarian): > 100 µM
TGI (UACC-257 melanoma): > 100 µM
TGI (BT-549 breast): > 100 µM
TGI (RPMI-8226 leukemia): > 100 µM
TGI (SNB-19 CNS): > 100 µM
TGI (SNB-75 CNS): > 100 µM
TGI (MDA-MB-435): > 100 µM
TGI (SN12C renal): > 100 µM
TGI (LOX IMVI melanoma): > 100 µM
TGI (KM12 colon): > 100 µM
TGI (COLO 205 colon): > 100 µM
TGI (HOP-92 NSCLC): > 100 µM
TGI (K-562 leukemia): > 100 µM
TGI (SF-539 CNS): 72.9 µM
TGI (UO-31 renal): > 100 µM
TGI (A549 NSCLC): > 100 µM
TGI (SW-620 colon): > 100 µM
TGI (PC-3 prostate): > 100 µM
TGI (HS 578T breast): > 100 µM

COC1(OC)c2no[n+]([O-])c2CCC1O (stereo unspecified)
TGI (OVCAR-3 ovarian): > 100 µM
TGI (MALME-3M melanoma): > 100 µM
TGI (RXF 393 renal): > 100 µM
TGI (HOP-62 NSCLC): > 100 µM
TGI (MDA-N): > 100 µM
TGI (CCRF-CEM leukemia): > 100 µM
TGI (EKVX NSCLC): > 100 µM
TGI (OVCAR-5 ovarian): > 100 µM
TGI (NCI-H460 lung): > 100 µM
TGI (HT29 colon): > 100 µM
TGI (MCF7 breast): > 100 µM
TGI (HCC-2998 colon): > 100 µM
TGI (786-0 renal): > 100 µM
TGI (NCI-H23 lung): > 100 µM
TGI (OVCAR-4 ovarian): > 100 µM
TGI (NCI/ADR-RES ovarian): > 100 µM
TGI (MOLT-4 leukemia): > 100 µM
TGI (SR leukemia): > 100 µM
TGI (SK-MEL-28 melanoma): > 100 µM
TGI (TK-10 renal): > 100 µM
TGI (M14 melanoma): > 100 µM
TGI (HCT-15 colon): > 100 µM
TGI (SK-MEL-5 melanoma): > 100 µM
TGI (A498 renal): > 100 µM
TGI (CAKI-1 renal): > 100 µM
TGI (ACHN renal): > 100 µM
TGI (MDA-MB-231 breast): > 100 µM
TGI (UACC-62 melanoma): > 100 µM
TGI (HCT-116 colon): > 100 µM
TGI (T-47D breast): > 100 µM
TGI (OVCAR-8 ovarian): > 100 µM
TGI (SF-268 CNS): > 100 µM
TGI (DU-145 prostate): > 100 µM
TGI (NCI-H226 lung): > 100 µM
TGI (SF-295 CNS): > 100 µM
TGI (NCI-H522 lung): > 100 µM
TGI (SK-MEL-2 melanoma): > 100 µM
TGI (SK-OV-3 ovarian): > 100 µM
TGI (UACC-257 melanoma): > 100 µM
TGI (IGROV1 ovarian): > 100 µM
TGI (RPMI-8226 leukemia): > 100 µM
TGI (SNB-19 CNS): > 100 µM
TGI (MDA-MB-435): > 100 µM
TGI (SN12C renal): > 100 µM
TGI (LOX IMVI melanoma): > 100 µM
TGI (KM12 colon): > 100 µM
TGI (COLO 205 colon): > 100 µM
TGI (HOP-92 NSCLC): > 100 µM
TGI (K-562 leukemia): > 100 µM
TGI (SF-539 CNS): > 100 µM
TGI (UO-31 renal): > 100 µM
TGI (A549 NSCLC): > 100 µM
TGI (SW-620 colon): > 100 µM
TGI (PC-3 prostate): > 100 µM
TGI (HS 578T breast): > 100 µM
